Reference: BindingDB's records for doi:10.1016/j.bmcl.2023.129387 (The University of Queensland, 2023)

target: Metallo-beta-lactamase type 2 (Klebsiella pneumoniae, UniProt C7C422); experiment: Competitive inhibition of NDM-1 (unknown origin) using penicillin G as substrate by Michaelis-Menten equation based kinetic analysis
Sequence (C7C422 whole entry): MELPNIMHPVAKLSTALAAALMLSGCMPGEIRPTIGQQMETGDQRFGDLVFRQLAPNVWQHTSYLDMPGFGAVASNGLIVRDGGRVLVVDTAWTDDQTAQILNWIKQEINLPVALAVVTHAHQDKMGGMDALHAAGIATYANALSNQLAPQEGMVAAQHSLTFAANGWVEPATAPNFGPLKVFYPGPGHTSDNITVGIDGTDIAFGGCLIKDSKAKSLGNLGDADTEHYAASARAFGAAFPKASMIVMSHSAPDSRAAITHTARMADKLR

| SMILES | Ki [µM] |
| --- | --- |
| N#Cc1c(-c2ccccc2)c(-c2ccccc2)n(Cc2ccccc2)c1/N=C/c1ccccc1 | 3.2 |
| N#Cc1c(-c2ccccc2)c(-c2ccccc2)n(Cc2ccccc2)c1/N=C/c1ccc(O)cc1 | 1.3 |
| COC(=O)c1ccc(/C=N/c2c(C#N)c(-c3ccccc3)c(-c3ccccc3)n2Cc2ccccc2)cc1 | 34 |

The remaining compounds from weak to strong by Ki, led by results:

| Ki [µM] | SMILES |
| --- | --- |
| 9 | N#Cc1c(-c2ccccc2)c(-c2ccccc2)n(Cc2ccccc2)c1NC(=O)c1ccccc1 |
| 1.7 | N#Cc1c(-c2ccccc2)c(-c2ccccc2)n(Cc2ccccc2)c1/N=C/c1cccs1 |
